Results as given in patent US4216128A, “Enkephalin analogues” (American Home Products Corporation, priority 1979, dated 1980).
Non-standard residues stand in square brackets, D forms with d. Residues, ends and D or L forms follow the SMILES beside them.

Key:
rats = conditions: injection in the brain ventricle, fully reversible by naloxone; cited from earlier work
mouse vas deferens = conditions: cited from earlier work
guinea pig ileum = conditions: cited from earlier work
opiate receptor [1] = conditions: brain homogenates; cited from earlier work
[2] = intracerebroventricular; cited from earlier work
[3] = peripheral administration; cited from earlier work
CF-1 mice = test: phenylbenzoquinone induced writhing test (analgesia); assay type: in vivo
opiate receptor [4] = test: relative displacement potency, procedure of Chang et al.; assay type: binding; conditions: relative to morphine
[5] = Coy et al.; cited from earlier work
[6] = intravenous administration; cited from earlier work

Compound: CC(C)C[C@H](NC(=O)[C@H](Cc1ccccc1)NC(=O)CNC(=O)CNC(=O)[C@@H](N)Cc1ccc(O)cc1)C(=O)O [leucine-enkephalin, H-Tyr-Gly-Gly-Phe-Leu-OH]
- analgesia (rats): profound analgesia

Compound: CSCC[C@H](NC(=O)[C@H](Cc1ccccc1)NC(=O)CNC(=O)CNC(=O)[C@@H](N)Cc1ccc(O)cc1)C(=O)O [methionine-enkephalin, H-Tyr-Gly-Gly-Phe-Met-OH]
- block of electrically evoked contractions (mouse vas deferens): block electrically evoked contractions
- block of electrically evoked contractions (guinea pig ileum): block electrically evoked contractions
- inhibition of stereospecific receptor binding of 3H-naloxone (opiate receptor [1]): inhibit
- analgesia (rats): profound analgesia

Compound: Tyr-D-Ala-Gly-Phe-D-Leu
- activity when administered intracerebroventricularly [2]: activity

Compound: CSCC[C@H](NC(=O)[C@H](Cc1ccccc1)NC(=O)CNC(=O)[C@@H](C)NC(=O)[C@@H](N)Cc1ccc(O)cc1)C(N)=O [Tyr-D-Ala-Gly-Phe-Met-amide]
- activity when administered peripherally [3]: inactive

Compound: CN[C@@H](Cc1ccc(O)cc1)C(=O)N[C@H](CS)C(=O)NCC(=O)N(C)[C@@H](Cc1ccccc1)C(=O)N[C@H](CC(N)=O)C(N)=O [Example 4, N-Methyl-L-tyrosyl-D-cysteinyl-glycyl-N-methyl-L-phenylalanyl-D-asparagine amide]
- percent analgesia after oral administration (CF-1 mice; oral dose of 50 mg/kg, 30 minutes): 10%
- ED50 (analgesia, absence of writhing) (CF-1 mice; subcutaneous administration, at 15 minutes, mice): 0.64 (0.29-1.4) mg/kg
- relative displacement potency (opiate receptor [4]): two

Compound: D-Met^5 enkephalin
- activity relative to Met enkephalin [5]: one tenth

Compound: CSCC[C@@H](NC(=O)[C@@H](N)Cc1ccc(O)cc1)C(=O)NCC(=O)N[C@@H](Cc1ccccc1)C(=O)N1CCC[C@H]1C(N)=O [Tyr-D-Met-Gly-Phe-Pro-NH2] (H-Y[dM]GFP-NH2)
- antinociceptive potency relative to morphine [6]: 5.5 times more potent than morphine
